In PubChem BioAssay AID1259411 (Chemical Carcinogenesis Research Information System (CCRIS), 2018):
Active and inactive are the calls of the source. No rule for the calls is given here.

Tested on: rodent carcinogenicity bioassays, tumor incidence
Assay: CCRIS carcinogenicity studies
Summary of the method: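 NCI-built, expert-reviewed records of carcinogenicity and related test outcomes (mutagenicity, tumor promotion/inhibition) compiled from published and report sources, historical span 1985-2011, not updated.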

In the case of `CCOC(=O)C(C)Oc1ccc(Oc2nc3ccc(Cl)cc3o2)cc1` (stereo unspecified), the carcinogen call (Species: Mouse, Strain/Sex: Strain not given in source/Female (50/Group), Route: Oral, Dose: 0, 2.5, 10, 40 ppm in diet for 24 mo, study duration 24 mo, Dose: 0, 2.5, 10, 40 ppm in diet for 24 mo, study duration 24 mo) is reported as “inactive; negative”, the carcinogen call (Species: Mouse, Strain/Sex: Strain not given in source/Male (50/Group), Route: Oral, Dose: 0, 2.5, 10, 40 ppm in diet for 24 mo, study duration 24 mo, Dose: 0, 2.5, 10, 40 ppm in diet for 24 mo, study duration 24 mo) is reported as “inactive; negative” and the carcinogen call (Species: Rat, Strain/Sex: Strain not given in source/Female (60/Group), Route: Oral, Dose: 0, 5, 30, 180 ppm (0; 0.33; 2.00; 11.87 mg/kg) in diet for up to 28 mo, study duration 28 mo, Dose: 0, 5, 30, 180 ppm (0; 0.33; 2.00; 11.87 mg/kg) in diet for up to 28 mo, study duration 28 mo) is reported as “inactive; negative”. The carcinogen call (Species: Rat, Strain/Sex: Strain not given in source/Male (60/Group), Route: Oral, Dose: 0, 5, 30, 180 ppm (0; 0.26; 1.58; 9.43 mg/kg) in diet for up to 28 mo, study duration 28 mo, Dose: 0, 5, 30, 180 ppm (0; 0.26; 1.58; 9.43 mg/kg) in diet for up to 28 mo, study duration 28 mo) was “inactive; negative”.
With `ClC1C(Cl)C(Cl)C(Cl)C(Cl)C1Cl` (stereo unspecified) the carcinogen call (Species: MOUSE, Strain/Sex: B6C3F1/FEMALE, Route: ORAL, Dose: 0, 80, 160 PPM IN DIET FOR 80 WK (STUDY DURATION: 90-91 WK), Dose: 0, 80, 160 PPM IN DIET FOR 80 WK (STUDY DURATION: 90-91 WK)) was “inactive; negative”, the carcinogen call (Species: MOUSE, Strain/Sex: CF-1/MALE,FEMALE, Route: ORAL, Dose: 200 MG/KG IN DIET, Tumor Site: Type of Lesion: LIVER: BENIGN TUMOR OR MALIGNANT TUMOR) was “active; positive” and the carcinogen call (Species: MOUSE, Strain/Sex: CF-1/MALE,FEMALE, Route: ORAL, Dose: 400 MG/KG IN DIET, Tumor Site: Type of Lesion: LIVER: BENIGN TUMOR OR MALIGNANT TUMOR) was “active; positive”. The carcinogen call (Species: MOUSE, Strain/Sex: DD/MALE, Route: ORAL, Dose: 0, 6.6, 66, 660 PPM IN BASAL DIET UNTIL SACRIFICE AT 24 WK (STUDY DURATION: 24 WK), Dose: 0, 6.6, 66, 660 PPM IN BASAL DIET UNTIL SACRIFICE AT 24 WK (STUDY DURATION: 24 WK), Tumor Site: Type of Lesion: LIVER: HEPATOMA) was “active; positive”, the carcinogen call (Species: MOUSE, Strain/Sex: MALE,FEMALE, Route: ORAL, Tumor Site: Type of Lesion: LIVER: BENIGN TUMOR OR MALIGNANT TUMOR) was “active; positive” and the carcinogen call (Species: RAT, Strain/Sex: OSBORNE-MENDEL/FEMALE, Route: ORAL, Dose: 0, 135, 270 PPM TWA, IN DIET FOR 80 WK (STUDY DURATION: 108-110 WK), Dose: 0, 135, 270 PPM TWA, IN DIET FOR 80 WK (STUDY DURATION: 108-110 WK)) was “inactive; negative”. The carcinogen call (Species: RAT, Strain/Sex: OSBORNE-MENDEL/MALE, Route: ORAL, Dose: 0, 236, 472 PPM TWA, IN DIET FOR 80 WK (STUDY DURATION: 109-110 WK), Dose: 0, 236, 472 PPM TWA, IN DIET FOR 80 WK (STUDY DURATION: 109-110 WK)) was “inactive; negative”, the carcinogen call (Species: Rat, Strain/Sex: Wistar/Female (50/Group), Route: Oral, Dose: 0, 0.06, 0.57, 5.6, 23.1 mg/kg/day of 99.5-99.7% lindane in diet for 18 mo, study duration 18 mo, Dose: 0, 0.06, 0.57, 5.6, 23.1 mg/kg/day of 99.5-99.7% lindane in diet for 18 mo, study duration 18 mo) was “inactive; negative” and the carcinogen call (Species: Rat, Strain/Sex: Wistar/Male (50/Group), Route: Oral, Dose: 0, 0.05, 0.45, 4.5, 18.7 mg/kg/day of 99.5-99.7% lindane in diet for 18 mo, study duration 18 mo, Dose: 0, 0.05, 0.45, 4.5, 18.7 mg/kg/day of 99.5-99.7% lindane in diet for 18 mo, study duration 18 mo) was “inactive; negative”.
For `O=[N+]([O-])c1cc([N+](=O)[O-])c2ccc(S(=O)(=O)O)cc2c1O`, the carcinogen call (Species: MOUSE, Strain/Sex: SWISS-WEBSTER/FEMALE, Route: DERMAL, Dose: 0, 1% IN 0.1 ML DISTILLED WATER 1/WK FOR 18 MO (STUDY DURATION: 18 MO)) was “inactive; negative” and the carcinogen call (Species: MOUSE, Strain/Sex: SWISS-WEBSTER/MALE, Route: DERMAL, Dose: 0, 1% IN 0.1 ML DISTILLED WATER 1/WK FOR 18 MO (STUDY DURATION: 18 MO)) was “inactive; negative”.
With `COc1ccc(N)cc1N` the carcinogen call (Species: MOUSE, Strain/Sex: B6C3F1/FEMALE, Route: ORAL, Dose: 0, 0.12, 0.24% IN DIET FOR 78 WK (STUDY DURATION: 96-97 WK), Dose: 0, 0.12, 0.24% IN DIET FOR 78 WK (STUDY DURATION: 96-97 WK), Tumor Site: Type of Lesion: THYROID GLAND: FOLLICULAR CELL ADENOMA OR CARCINOMA) was “active; positive”, the carcinogen call (Species: MOUSE, Strain/Sex: B6C3F1/MALE, Route: ORAL, Dose: 0, 0.12, 0.24% IN DIET FOR 78 WK (STUDY DURATION: 96-97 WK), Dose: 0, 0.12, 0.24% IN DIET FOR 78 WK (STUDY DURATION: 96-97 WK), Tumor Site: Type of Lesion: THYROID GLAND: FOLLICULAR CELL ADENOMA) was “active; positive” and the carcinogen call (Species: RAT, Strain/Sex: F344/FEMALE, Route: ORAL, Dose: 0, 0.12, 0.5% TWA, IN DIET FOR 78 WK (STUDY DURATION: 107-110 WK), Dose: 0, 0.12, 0.5% TWA, IN DIET FOR 78 WK (STUDY DURATION: 107-110 WK), Tumor Site: Type of Lesion: THYROID GLAND: ADENOCARCINOMA (NOS) OR FOLLICULAR CELL CARCINOMA OR PAPILLARY CYSTADENOCARCINOMA (NOS), EAR (ZYMBAL GLAN) was “active; positive”. For the same compound, the carcinogen call (Species: RAT, Strain/Sex: F344/MALE, Route: ORAL, Dose: 0, 0.12, 0.5% TWA, IN DIET FOR 78 WK (STUDY DURATION: 107-109 WK), Dose: 0, 0.12, 0.5% TWA, IN DIET FOR 78 WK (STUDY DURATION: 107-109 WK), Tumor Site: Type of Lesion: THYROID GLAND: C CELL ADENOMA OR CARCINOMA, ADENOCARCINOMA (NOS), ADENOCARCINOMA (NOS) OR PAPILLARY ADENOCARCINOMA OR FO) was “active; positive”.
For `C=CC(=O)NCO`, the carcinogen call (Species: MOUSE, Strain/Sex: B6C3F1/FEMALE, Route: GAVAGE, Dose: 0, 25, 50 MG/KG IN DEIONIZED WATER 5 D/WK FOR 103 WK (STUDY DURATION: 105 WK), Dose: 0, 25, 50 MG/KG IN DEIONIZED WATER 5 D/WK FOR 103 WK (STUDY DURATION: 105 WK), Tumor Site: Type of Lesion: HARDERIAN GLAND: ADENOMA, ADENOMA OR CARCINOMA, LIVER: HEPATOCELLULAR ADENOMA, HEPATOCELLULAR ADENOMA OR CARCINOMA, LUNG, Tumor Site: Type of Lesion: HARDERIAN GLAND: ADENOMA, ADENOMA OR CARCINOMA, LIVER: HEPATOCELLULAR ADENOMA, HEPATOCELLULAR ADENOMA OR CARCINOMA, LUNG) was “active; positive”, the carcinogen call (Species: MOUSE, Strain/Sex: B6C3F1/MALE, Route: GAVAGE, Dose: 0, 25, 50 MG/KG IN DEIONIZED WATER 5 D/WK FOR 103 WK (STUDY DURATION: 105 WK), Dose: 0, 25, 50 MG/KG IN DEIONIZED WATER 5 D/WK FOR 103 WK (STUDY DURATION: 105 WK), Tumor Site: Type of Lesion: HARDERIAN GLAND: ADENOMA, ADENOMA OR CARCINOMA, LIVER: HEPATOCELLULAR ADENOMA, HEPATOCELLULAR CARCINOMA, LUNG: ALVEOLAR/, Tumor Site: Type of Lesion: HARDERIAN GLAND: ADENOMA, ADENOMA OR CARCINOMA, LIVER: HEPATOCELLULAR ADENOMA, HEPATOCELLULAR CARCINOMA, LUNG: ALVEOLAR/) was “active; positive” and the carcinogen call (Species: RAT, Strain/Sex: F344/FEMALE, Route: GAVAGE, Dose: 0, 6, 12 MG/KG IN DEIONIZED WATER 5 D/WK FOR 103 WK (STUDY DURATION: 105 WK), Dose: 0, 6, 12 MG/KG IN DEIONIZED WATER 5 D/WK FOR 103 WK (STUDY DURATION: 105 WK)) was “inactive; negative”. The carcinogen call (Species: RAT, Strain/Sex: F344/MALE, Route: GAVAGE, Dose: 0, 6, 12 MG/KG IN DEIONIZED WATER 5 D/WK FOR 103 WK (STUDY DURATION: 105 WK), Dose: 0, 6, 12 MG/KG IN DEIONIZED WATER 5 D/WK FOR 103 WK (STUDY DURATION: 105 WK)) was “inactive; negative”.
For `O=S(=O)(O)c1cc(S(=O)(=O)O)c2c(N=Nc3ccc(S(=O)(=O)O)c4ccccc34)c(O)ccc2c1`, the carcinogen call (Species: RAT, Strain/Sex: WISTAR/FEMALE, Route: ORAL, Dose: 0, 50, 500, 1250 MG/KG/D IN DIET TO PUPS OF PARENTS GIVEN THE SAME DIETARY DOSE LEVELS FOR 60 D PRIOR TO MATING (STUDY D, Dose: 0, 50, 500, 1250 MG/KG/D IN DIET TO PUPS OF PARENTS GIVEN THE SAME DIETARY DOSE LEVELS FOR 60 D PRIOR TO MATING (STUDY D) was “inactive; negative” and the carcinogen call (Species: RAT, Strain/Sex: WISTAR/MALE, Route: ORAL, Dose: 0, 50, 500, 1250 MG/KG/D IN DIET TO PUPS OF PARENTS GIVEN THE SAME DIETARY DOSE LEVELS FOR 60 D PRIOR TO MATING (STUDY D, Dose: 0, 50, 500, 1250 MG/KG/D IN DIET TO PUPS OF PARENTS GIVEN THE SAME DIETARY DOSE LEVELS FOR 60 D PRIOR TO MATING (STUDY D) was “inactive; negative”.
For `CCCC[N+](=O)[O-]`, the carcinogen call (Species: RAT, Strain/Sex: F344/MALE, Route: GAVAGE, Dose: 0, 2 MMOL/KG BW 1/WK FOR 50 WK (STUDY DURATION: 83 WK)) was “inactive; negative”.
